# Results: ChEMBL document CHEMBL1150410, “Identification of MMP-12 inhibitors by using biosensor-based screening of a fragment library” (J Med Chem, 2008)
# Key:
# [1] = biological target: T1, Macrophage metalloelastase (Homo sapiens, UniProt P39900); assay: Inhibition of MMP12 at 500 uM
# Target sequence in this assay (P39900 106-470 limits assumed): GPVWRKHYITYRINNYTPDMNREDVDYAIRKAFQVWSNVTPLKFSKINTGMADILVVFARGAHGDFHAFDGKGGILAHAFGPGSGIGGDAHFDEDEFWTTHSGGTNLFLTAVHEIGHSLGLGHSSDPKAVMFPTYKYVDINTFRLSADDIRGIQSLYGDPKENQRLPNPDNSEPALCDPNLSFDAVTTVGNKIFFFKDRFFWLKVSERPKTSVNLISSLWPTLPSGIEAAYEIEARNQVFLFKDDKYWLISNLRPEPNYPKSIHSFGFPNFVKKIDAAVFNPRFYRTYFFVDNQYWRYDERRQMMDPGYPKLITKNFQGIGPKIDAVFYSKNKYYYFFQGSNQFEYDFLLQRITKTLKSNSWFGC
# [2] = biological target: T1, Macrophage metalloelastase; assay: Inhibition of MMP12
# Target sequence in this assay (P39900 whole entry): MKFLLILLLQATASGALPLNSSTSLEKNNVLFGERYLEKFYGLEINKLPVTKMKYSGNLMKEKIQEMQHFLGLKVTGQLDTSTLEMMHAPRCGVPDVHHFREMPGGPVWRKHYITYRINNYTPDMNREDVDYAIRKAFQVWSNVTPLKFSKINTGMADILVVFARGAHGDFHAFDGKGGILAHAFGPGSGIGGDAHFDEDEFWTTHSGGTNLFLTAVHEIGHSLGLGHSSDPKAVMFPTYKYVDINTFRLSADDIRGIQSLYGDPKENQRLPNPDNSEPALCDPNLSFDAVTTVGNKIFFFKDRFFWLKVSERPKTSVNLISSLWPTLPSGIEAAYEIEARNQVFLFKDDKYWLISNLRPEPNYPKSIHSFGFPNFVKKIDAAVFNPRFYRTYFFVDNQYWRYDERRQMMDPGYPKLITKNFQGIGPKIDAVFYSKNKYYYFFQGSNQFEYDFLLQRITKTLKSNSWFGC
# [3] = biological target: T1, Macrophage metalloelastase; conditions: 0.0025 uM
# Target sequence in this assay (P39900 106-470 limits assumed): as the sequence (P39900 106-470 limits assumed) above
# Description: Inhibition of MMP12 at 0.0025 uM
inhibition [1] [%],IC50 [2] [µM],inhibition [3] [%],SMILES
25,2000,,COc1ccc2nc[nH]c2c1
100,0.29,,O=C1NC(=O)C(c2ccccc2)N1 (configuration not stated)
60,355,,Cc1ccc2c(c1)NC(=O)CO2

# Further lines, the molecule ahead of its results:
SMILES,inhibition [1] [%],IC50 [2] [µM],inhibition [3] [%]
Cc1nc(-c2ccc3c(c2)CCC(=O)N3)cs1,10,5000,
Cn1cc2c(n1)-c1cc(Cl)ccc1SC2,30,1000,
CNC(=O)[C@H](Cc1c[nH]c2ccccc12)NC(=O)[C@@H](CC(=O)NO)CC(C)C [ILOMASTAT],,0.001,75
